# Source: US12377104B1, “Methods for treating a fatty liver disease” (Madrigal Pharmaceuticals, Inc., priority 2024, dated 2025)
# Key:
# [1] = tested on: adults with biopsy-confirmed NASH and fibrosis stage F1B, F2, or F3; assay: MAESTRO-NASH phase 3: liver biopsy end points at week 52; format: in vivo, human
# Protocol: A phase 3 trial was conducted involving adults with biopsy-confirmed NASH and a fibrosis stage of F1B, F2, or F3 (stages range from F0 [no fibrosis] to F4 [cirrhosis]).
# Randomization was performed with the use of an interactive Webresponse system. Patients were stratified according to status with respect to type 2 diabetes (presence or absence) and fibrosis stage (F1, F2, or F3). Throughout the trial, patients received nutrition and exercise counseling according to current recommendations. Patients were unaware of the trial-group assignments, as were site personnel, personnel of contract research organizations, and sponsor personnel who were conducting the trial, administering the investigational product, and performing clinical assessments. Selected persons were aware of the trial-group assignments to facilitate dispensation of resmetirom or placebo. All trial personnel were unaware of the results of postbaseline tests that could reveal the trial-group assignments, including levels of total and free thyroxine (T4), sex hormone-binding globulin, and lipids as well as magnetic resonance imaging proton density fat fraction (MRI-PDFF).
# Screening biopsy results were used as baseline values for histologic variables, and a second biopsy was performed at week 52. Biopsy specimens on glass slides were assessed centrally by two independent expert pathologists (the second and third authors) to determine the NAFLD activity score and fibrosis stage (according to NASH Clinical Research Network criteria). For the primary analysis, all screening or baseline biopsy specimens and week 52 biopsy specimens on glass slides were reread independently by both pathologists in large unpaired groups of screening or baseline biopsy specimens (50 to 100 slides per group, spiked with biopsy specimens obtained from patients who had screening failure) or a separate matched set of week 52 biopsy specimens (50 to 100 slides per group). The pathologists were unaware of the trial-group assignments, patient characteristics, and each other's assessments. A consensus review was conducted as a supportive analysis wherein the two pathologists read blinded (to time of biopsy and identification code) digitized images for cases in which there was disagreement on the primary read with respect to response status for the two primary end points or a reduction in fibrosis by at least two stages. Only the NAFLD activity scores or fibrosis components that determined the response for which there was disagreement between the pathologists were reread. Details are provided in the Supplementary Appendix.
# The primary statistical analysis model used the Cochran-Mantel-Haenszel test to determine response with respect to the biopsy end points.
# [2] = MAESTRO-NASH: bone mineral density T score and fractures; design: species or system human; conditions: in vivo
smiles,measurement,setting,value
"CC(C)c1cc(Oc2c(Cl)cc(-n3nc(C#N)c(=O)[nH]c3=O)cc2Cl)n[nH]c1=O [Resmetirom, 2-(3,5-dichloro-4-((5-isopropyl-6-oxo-1,6-dihydropyridazin-3-yl)oxy)phenyl)-3,5-dioxo-2,3,4,5-tetrahydro-1,2,4-triazine-6-carbonitrile]","Both NASH resolution and fibrosis improvement by ≥1 stage, difference from placebo",[1]; 80 mg,9.5 percentage points
same,"Both NASH resolution and fibrosis improvement by ≥1 stage, percent with response",[1]; 80 mg,14.2%
same,"Fibrosis improvement by ≥1 stage with no worsening of NAFLD activity score, difference from placebo",[1]; 80 mg,10.2 percentage points
same,"Fibrosis improvement by ≥1 stage with no worsening of NAFLD activity score, percent with response",[1]; 80 mg,24.2%
same,"Improvement in each component of NAFLD activity score, difference from placebo",[1]; 80 mg,16.1 percentage points
same,"Improvement in each component of NAFLD activity score, percent with response",[1]; 80 mg,23.3%
same,"Improvement in fibrosis by ≥2 stages, difference from placebo",[1]; 80 mg,5.6 percentage points
same,"Improvement in fibrosis by ≥2 stages, percent with response",[1]; 80 mg,8.3%
same,"NASH resolution with no worsening of fibrosis, difference from placebo",[1]; 80 mg,16.4 percentage points
same,"NASH resolution with no worsening of fibrosis, percent with response",[1]; 80 mg,25.9%
same,"≥2-Point improvement in NAFLD activity score with improvement in fibrosis, difference from placebo",[1]; 80 mg,10.5 percentage points
same,"≥2-Point improvement in NAFLD activity score with improvement in fibrosis, percent with response",[1]; 80 mg,18.8%
same,"≥2-Point improvement in NAFLD activity score with no worsening of fibrosis, difference from placebo",[1]; 80 mg,20.2 percentage points
same,"≥2-Point improvement in NAFLD activity score with no worsening of fibrosis, percent with response",[1]; 80 mg,41.3%
same,"Both NASH resolution and fibrosis improvement by ≥1 stage, difference from placebo",[1]; 100 mg,11.6 percentage points
same,"Both NASH resolution and fibrosis improvement by ≥1 stage, percent with response",[1]; 100 mg,16.0%
same,"Fibrosis improvement by ≥1 stage with no worsening of NAFLD activity score, difference from placebo",[1]; 100 mg,11.8 percentage points
same,"Fibrosis improvement by ≥1 stage with no worsening of NAFLD activity score, percent with response",[1]; 100 mg,25.9%
same,"Improvement in each component of NAFLD activity score, difference from placebo",[1]; 100 mg,20.9 percentage points
same,"Improvement in each component of NAFLD activity score, percent with response",[1]; 100 mg,27.9%
same,"Improvement in fibrosis by ≥2 stages, difference from placebo",[1]; 100 mg,7.4 percentage points
same,"Improvement in fibrosis by ≥2 stages, percent with response",[1]; 100 mg,10.1%
same,"NASH resolution with no worsening of fibrosis, difference from placebo",[1]; 100 mg,20.7 percentage points
same,"NASH resolution with no worsening of fibrosis, percent with response",[1]; 100 mg,29.9%
same,"≥2-Point improvement in NAFLD activity score with improvement in fibrosis, difference from placebo",[1]; 100 mg,13.0 percentage points
same,"≥2-Point improvement in NAFLD activity score with improvement in fibrosis, percent with response",[1]; 100 mg,21.2%
same,"≥2-Point improvement in NAFLD activity score with no worsening of fibrosis, difference from placebo",[1]; 100 mg,23.8 percentage points
same,"≥2-Point improvement in NAFLD activity score with no worsening of fibrosis, percent with response",[1]; 100 mg,44.9%
same,fractures and bone mineral density T scores,[2],no increases in fractures or substantial changes in bone mineral density T scores
